Converted amounts (≈) assume the structure as drawn. Read-outs that look alike come from different tables or passages of the source.
How the values were obtained:
Assay type in all cases: cell-based
[1] = test system: Enterobacter cloacae OMNF 1174; assay: MIC test, agar dilution with Steers multiwell inoculator; details: OMNF1174, TSA dishes, 24 h at 35°C, read-out: Minimum Inhibiting Concentration
Procedure: (§1) As to the antibacterial activity, there was determined the Least (Minimum) Inhibiting Concentration (MIC), by working according to the following operative conditions.
(§2) There were used suspensions of test germs (5 gram-positive and 15 gram-negative) having a known titre, kept freezed at -80°C and diluted, at the time of use, in peptonized water up to a concentration of 1-2.10⁷ cfu/ml.
(§3) A few mg of the products, according to the invention were weighed sufficient for preparing parent solutions in DMSO + NaOH (1N) containing 2560 µg/ml (64µg/ml/dish). From the thus prepared parent solutions there were prepared 12 serial dilutions (1:2) down to the concentration of 1.25 µg/ml.
(§4) 0.5 ml of the different dilutions of each product were distributed on dishes containing 19.5 ml of agarized medium (TSA), maintained in a fluid state at the temperature of 50°C. After slight stirring, the dishes were made to solidify and dry under hood (laminar flow).
(§5) The MIC tests (Least or "Minimum" Inhibiting Concentration) were performed by using a Steers multiwell inoculator having 36 wells, each containing 200 µl of bacterial suspension.
(§6) After inoculation, the dishes were placed into a thermostat and checked after 24 h of incubation at 35°C.
(§7) The MIC is defined as the lowermost product concentration (µg/ml) inhibiting the visible growth of the microorganisms.

Escherichia coli ISF 432 = assay: as above; details: ISF432, TSA dishes, 24 h at 35°C, read-out: Minimum Inhibiting Concentration
Procedure: as §1, §2, §3, §4, §5, §6, §7

[2] = test system: Staphylococcus aureus ATCC 6538; assay: as above; details: ATCC6538, TSA dishes, 24 h at 35°C, read-out: Minimum Inhibiting Concentration
Procedure: as §1, §2, §3, §4, §5, §6, §7

[3] = test system: Staphylococcus aureus MPR 5; assay: as above; details: MPR5, TSA dishes, 24 h at 35°C, read-out: Minimum Inhibiting Concentration
Procedure: as §1, §2, §3, §4, §5, §6, §7

[4] = test system: Pseudomonas aeruginosa CNUR 4; assay: as above; details: CNUR4, TSA dishes, 24 h at 35°C, read-out: Minimum Inhibiting Concentration
Procedure: as §1, §2, §3, §4, §5, §6, §7

Proteus vulgaris CNUR 6 = assay: as above; details: CNUR6, TSA dishes, 24 h at 35°C, read-out: Minimum Inhibiting Concentration
Procedure: as §1, §2, §3, §4, §5, §6, §7

[5] = test system: Pseudomonas aeruginosa ATCC 9027; assay: as above; details: ATCC9027, TSA dishes, 24 h at 35°C, read-out: Minimum Inhibiting Concentration
Procedure: as §1, §2, §3, §4, §5, §6, §7

[6] = test system: Pseudomonas aeruginosa CNUR 2; assay: as above; details: CNUR2, TSA dishes, 24 h at 35°C, read-out: Minimum Inhibiting Concentration
Procedure: as §1, §2, §3, §4, §5, §6, §7

[7] = test system: Staphylococcus epidermidis HCF Berset C.; assay: as above; details: TSA dishes, 24 h at 35°C, read-out: Minimum Inhibiting Concentration
Procedure: as §1, §2, §3, §4, §5, §6, §7

[8] = test system: Acinebacter calcoloaceticus OSMPV 1130; assay: as above; details: TSA dishes, 24 h at 35°C, read-out: Minimum Inhibiting Concentration
Procedure: as §1, §2, §3, §4, §5, §6, §7

[9] = test system: Escherichia coli ATCC 8739; assay: as above; details: ATCC8739, TSA dishes, 24 h at 35°C, read-out: Minimum Inhibiting Concentration
Procedure: as §1, §2, §3, §4, §5, §6, §7

[10] = test system: Enterobacter cloacae OMNF 1153; assay: as above; details: OMNF1153, TSA dishes, 24 h at 35°C, read-out: Minimum Inhibiting Concentration
Procedure: as §1, §2, §3, §4, §5, §6, §7

Escherichia coli CNUR 1 = assay: as above; details: CNUR1, TSA dishes, 24 h at 35°C, read-out: Minimum Inhibiting Concentration
Procedure: as §1, §2, §3, §4, §5, §6, §7

Shighella enteritidis = assay: as above; details: TSA dishes, 24 h at 35°C, read-out: Minimum Inhibiting Concentration
Procedure: as §1, §2, §3, §4, §5, §6, §7

Escherichia coli 120 = assay: as above; details: TSA dishes, 24 h at 35°C, read-out: Minimum Inhibiting Concentration
Procedure: as §1, §2, §3, §4, §5, §6, §7

Escherichia coli CNUR 8 = assay: as above; details: CNUR8, TSA dishes, 24 h at 35°C, read-out: Minimum Inhibiting Concentration
Procedure: as §1, §2, §3, §4, §5, §6, §7

[11] = test system: Providencia stuardii CNUR 5; assay: as above; details: CNUR5, TSA dishes, 24 h at 35°C, read-out: Minimum Inhibiting Concentration
Procedure: as §1, §2, §3, §4, §5, §6, §7

[12] = test system: Streptococcus facealis LEP Br.; assay: as above; details: TSA dishes, 24 h at 35°C, read-out: Minimum Inhibiting Concentration
Procedure: as §1, §2, §3, §4, §5, §6, §7

[13] = test system: Staphylococcus epidermidis CPHL A2; assay: as above; details: CPHLA2, TSA dishes, 24 h at 35°C, read-out: Minimum Inhibiting Concentration
Procedure: as §1, §2, §3, §4, §5, §6, §7

[14] = test system: Klebsiella pneumoniae ATCC 10031; assay: as above; details: ATCC10031, TSA dishes, 24 h at 35°C, read-out: Minimum Inhibiting Concentration
Procedure: as §1, §2, §3, §4, §5, §6, §7

Gram + = assay: MIC test, average over the 5 gram-positive test germs; details: 24 h
Procedure: as §1, §2, §3, §4, §5, §6, §7

Gram - = assay: MIC test, average over the 15 gram-negative test germs; details: 24 h
Procedure: as §1, §2, §3, §4, §5, §6, §7

[15] = geometrical average of the MIC over the 5 Gram + strains, read-out: Geometrical Average
[16] = geometrical average of the MIC over the 15 Gram - strains, read-out: Geometrical Average
[17] = mean log of the MIC over the 15 Gram - strains, read-out: Log (converted)

Row | Compound | MIC [1] | MIC (Escherichia coli ISF 432) | MIC [2] | MIC [3] | MIC [4] | MIC (Proteus vulgaris CNUR 6) | MIC [5] | MIC [6] | MIC [7] | MIC [8] | MIC [9] | MIC [10] | MIC (Escherichia coli CNUR 1) | MIC (Shighella enteritidis) | MIC (Escherichia coli 120) | MIC (Escherichia coli CNUR 8) | MIC [11] | MIC [12] | MIC [13] | MIC [14] | other results
1 | CC1CN(c2cc3c(cc2N)c(=O)c(C(=O)O)cn3C2CC2)CCN1 (stereo not drawn) [Compound 14] | 0.25 µg/mL (≈ 0.73 µM) | 0.03 µg/mL (≈ 0.0876 µM) | 16 µg/mL (≈ 46.7 µM) | 16 µg/mL (≈ 46.7 µM) | 64 µg/mL (≈ 187 µM) | 32 µg/mL (≈ 93.5 µM) | 2 µg/mL (≈ 5.84 µM) | 4 µg/mL (≈ 11.7 µM) | 4 µg/mL (≈ 11.7 µM) | 16 µg/mL (≈ 46.7 µM) | 0.03 µg/mL (≈ 0.0876 µM) | 0.5 µg/mL (≈ 1.46 µM) | 0.12 µg/mL (≈ 0.35 µM) | 0.25 µg/mL (≈ 0.73 µM) | 0.06 µg/mL (≈ 0.175 µM) | 0.12 µg/mL (≈ 0.35 µM) | 16 µg/mL (≈ 46.7 µM) | 32 µg/mL (≈ 93.5 µM) | 4 µg/mL (≈ 11.7 µM) | 0.03 µg/mL (≈ 0.0876 µM) | MIC (Gram +; [15]): 10.6 µg/mL; MIC (Gram +; read-out: Log (converted)): 10.5 µg/mL (≈ 30.8 µM); MIC (Gram -; [16]): 0.68 µg/mL (≈ 1.99 µM); MIC (Gram -; [17]): 0.679 µg/mL (≈ 1.98 µM)
2 | CN1CCN(c2nc3c(cc2N)c(=O)c(C(=O)O)cn3C2CC2)CC1 [Compound 40, chlorhydrate of the 6-amino-1-cyclopropyl-7-(4-methyl-1-piperazinyl)-1,4-dihydro-4-oxo-1,8-naphthyridine carboxylic acid] | 0.12 µg/mL | 0.03 µg/mL | 4 µg/mL | 4 µg/mL | 64 µg/mL | 64 µg/mL | 2 µg/mL | 4 µg/mL | 4 µg/mL | 2 µg/mL | 0.12 µg/mL | 0.12 µg/mL | 0.12 µg/mL | 0.12 µg/mL | 0.06 µg/mL | 0.06 µg/mL | 2 µg/mL | 32 µg/mL | 4 µg/mL | 0.03 µg/mL | MIC (Gram +; [15]): 6.06 µg/mL; MIC (Gram +; read-out: Log (converted)): 6.07 µg/mL; MIC (Gram -; [16]): 0.466 µg/mL; MIC (Gram -; [17]): 0.466 µg/mL
3 | CC(C)(C)n1cc(C(=O)O)c(=O)c2cc(N)c(N3CCN(c4ccccn4)CC3)cc21 [Compound 48, 6-amino-1-terbutyl-7-[4-(2-pyridyl)-1-piperazinyl]-1,4-dihydro-4-oxo-quinoline carboxylic acid] | 64 µg/mL (≈ 152 µM) | 0.5 µg/mL (≈ 1.19 µM) | 1 µg/mL (≈ 2.37 µM) | 1 µg/mL (≈ 2.37 µM) | 128 µg/mL (≈ 304 µM) | 128 µg/mL (≈ 304 µM) | 128 µg/mL (≈ 304 µM) | 128 µg/mL (≈ 304 µM) | 2 µg/mL (≈ 4.74 µM) | 1 µg/mL (≈ 2.37 µM) | 0.5 µg/mL (≈ 1.19 µM) | 128 µg/mL (≈ 304 µM) | 64 µg/mL (≈ 152 µM) | 64 µg/mL (≈ 152 µM) | 16 µg/mL (≈ 38 µM) | 16 µg/mL (≈ 38 µM) | 128 µg/mL (≈ 304 µM) | 16 µg/mL (≈ 38 µM) | 1 µg/mL (≈ 2.37 µM) | 0.25 µg/mL (≈ 0.593 µM) | MIC (Gram +; [15]): 2 µg/mL; MIC (Gram +; read-out: Log (converted)): 2 µg/mL (≈ 4.74 µM); MIC (Gram -; [16]): 19.2 µg/mL (≈ 45.7 µM); MIC (Gram -; [17]): 19.2 µg/mL (≈ 45.6 µM)

Reference: EP0531958A1, “6-Aminoquinolones, their synthesis and their use as antibacterial agents” (MEDIOLANUM FARMACEUTICI S.P.A., priority 1991, dated 1993)
